The record followed here is paper PMC2830424, “The Anopheles gambiae Odorant Binding Protein 1 (AgamOBP1) Mediates Indole Recognition in the Antennae of Female Mosquitoes” (PLoS ONE, 2010).

Test [1] addresses T1, AgamOBP1 (Odorant Binding Protein 1) (Anopheles gambiae, UniProt Q8T6S0).
T1 sequence (Q8T6S0 20-144): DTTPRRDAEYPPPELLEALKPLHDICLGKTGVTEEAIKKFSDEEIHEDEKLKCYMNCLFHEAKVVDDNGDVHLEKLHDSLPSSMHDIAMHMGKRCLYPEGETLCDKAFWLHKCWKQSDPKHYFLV
Nature of the test: fluorescent reporter dye of the displacement assay (no Kd reported). Set-up: gene OBP-1; recombinant OBP1 (r-OBP1).

In test [2] the target is T1, AgamOBP1 (Odorant Binding Protein 1). Kind of test: fluorescence displacement of 1-NPN (screening assay). More on the design: gene OBP-1; recombinant OBP1 (r-OBP1). The text has this:
fluorescence displacement of 1-NPN (screening assay) on AgamOBP1 (Odorant Binding Protein 1) | 3-methyl indole (skatole) […] also bound to r-OBP1 but with an apparently lower affinity

The target is the same in test [3]. Nature of the test: 3H-indole scintillation proximity (Ni-NTA FlashPlate) binding; confirmed by 1-NPN fluorescence displacement. More on the design: gene OBP-1; purified 6xHis tagged r-OBP1. The text has this:
3H-indole scintillation proximity (Ni-NTA FlashPlate) binding; confirmed by 1-NPN fluorescence displacement on AgamOBP1 (Odorant Binding Protein 1) | Binding curve of ^3H indole to r-OBP1 in Ni-NTA FlashPlates.
In general terms: SPA uses beads or plates that emit light when radiolabelled molecules are held near them.

SMILES strings stand for the structures.

`c1ccc(Nc2cccc3ccccc23)cc1` [1-NPN, N-Phenyl-1-Naphthylamine]: the “fluorescent reporter dye displacement” value in test [1] is on record as “increasing concentrations of indole displaced more 1-NPN dye from the AgamOBP1 binding pocket”.

In the case of `Cc1c[nH]c2ccccc12` [3-methyl indole], the “fluorescence displacement of 1-NPN (screening assay)” value in test [2] is 3-methyl indole (skatole) [...] also bound to r-OBP1 but with an apparently lower affinity.

Turning to `c1ccc2[nH]ccc2c1` [indole], in test [3], the dissociation constant Kd (as a rule, a measure of binding affinity in units of concentration) turned out to be 2300 nM.
